Values belong to the compound of their own block, whether it stands above or below them. Bridge positions count the residues as written; N and C are the ends. Square brackets hold non-standard residues; d marks the D form. Ends that are not written are not given here. Peptide text beside a SMILES is read from it. Nle = CCCC[C@H](N)C(=O)O
What was measured:
patients = details: cited from earlier work
human volunteers = assay: Erectile response after subcutaneous injection of peptide in human volunteers; format: in vivo
Experimental: The peptides described herein were prepared by sterile methods to a final concentration of 10 mg of peptide per ml of physiological saline. In addition to a full dose providing 10 mg of the peptide to the individual, doses of 0.1 to 0.3 ml (providing 1 mg to 3 mg of the peptide to each individual) of this stock material were also injected into volunteers, with a dose of 0.1 to 0.2 ml being the most often used dosage.
The onset of erection occurred about 1 to 2 hours after injection. […] A dose of 3.75 mg given to volunteers produced a long lasting erection of 4 to 6 hour duration. […] In some, this discomfort was considerable. […] Accordingly, although dosages of from about 1.0 mg to about 10.0 mg show the desired activity according to the present invention, it is preferred that the lower ranges of dosage which bring about the desired erection without undesirable side effects be used. Accordingly, it is preferred that dosages of about 1.5 mg to 2.5 mg of peptide be provided when the route of administration is subcutaneous or intramuscular. With other routes of administration, this range may require adjustment, however, it is still preferred that the lower range of adjusted effective dosages for the selected route of administration be used.

men = details: oral, a few hundred men treated for depression, early 1980s; cited from earlier work
[1] = injection, alone or combined with phentolamine

Compound: COc1ccc(Cc2nccc3cc(OC)c(OC)cc23)cc1OC [papaverine]
- share of patients in whom erection is induced (patients; [1]): about 70%
- side effects (patients; [1]): pain, ecchymosis, and occasional episodes of priapism

- stomach discomfort (human volunteers; 2.5 mg and 1.25 mg doses): No stomach discomfort was experienced
Compound: CCCC[C@H](NC(C)=O)C(=O)N[C@H]1CC(=O)NCCCC[C@@H](C(=O)NCC(N)=O)NC(=O)[C@H](Cc2c[nH]c3ccccc23)NC(=O)[C@H](CCCNC(=N)N)NC(=O)[C@@H](Cc2ccccc2)NC(=O)[C@H](Cc2c[nH]cn2)NC1=O (Ac-[Nle]DH[dF]RWKG-NH2; lactam 2-7)
- duration of erection (sustained intermittently) (human volunteers; 1.25 mg dose): up to 6 hours
- induction of erection (human volunteers; 1.25 mg dose): induced an erection
- onset of erection (human volunteers; 1.25 mg dose, compared with 2.5 mg): took longer to initially occur
- time to erection following administration (human volunteers; 2.5 mg): ≤ 60 min

Compound: O=c1n(CCCN2CCN(c3cccc(Cl)c3)CC2)nc2ccccn12 [trazodone]
- erections as unexpected effect (men): prolonged and painful erections

Compound: vasoactive intestinal peptide (HSDAVFTDNYTRLRKQMAVKKYLNSILN; ends and bridges not checked; UniProt P01282 125-152, looked up)
- induction of full erection necessary for intercourse (patients; intrapenile injections, trials): proven ineffective

— patent US5576290A, “Compositions and methods for the diagnosis and treatment of psychogenic erectile dysfunction” (Competitive Technologies, Inc., priority 1994, dated 1996)
